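Dose response: 5 concentrations. Exposure: 48 h. Format: 96-well plates. Endpoint: linear interpolation; highest concentration if not reached. GI50 marks 50% less growth.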 Activity calls are given as the source filed them. Rule as the data show it: active = GI50 up to about 1.1 µM and inactive = higher.
How the values were obtained:
Test in all cases: inhibition of tumour cell growth, NCI panel, 48 h
MDA-N = system: MDA-N
SNB-19 = system: SNB-19
COLO 205 = system: COLO 205
A549 = system: A549
Malme-3M = system: Malme-3M
U-251 = system: U-251
EKVX = system: EKVX
HOP-92 = system: HOP-92
TK-10 = system: TK-10
HL-60 = system: HL-60
DU-145 = system: DU-145
SNB-75 = system: SNB-75
SW-620 = system: SW-620
T47D = system: T47D
OVCAR-5 = system: OVCAR-5
KM12 = system: KM12
MDA-MB-435 = system: MDA-MB-435
HCC 2998 = system: HCC 2998
HOP-62 = system: HOP-62
ACHN = system: ACHN

Measured: GI50

Nc1nc(N)c2nc(CNc3ccc(C(=O)O)cc3)[nH]c2n1
inactive: MDA-N > 100 µM | SNB-19 > 100 µM | COLO 205 > 100 µM | A549 > 100 µM | Malme-3M > 100 µM | U-251 > 100 µM | EKVX > 100 µM | HOP-92 > 100 µM | TK-10 > 100 µM | HL-60 > 100 µM | DU-145 > 100 µM | SNB-75 > 100 µM | SW-620 > 100 µM | T47D > 100 µM | OVCAR-5 > 100 µM | KM12 > 100 µM | MDA-MB-435 > 100 µM | HCC 2998 27.9 µM | HOP-62 > 100 µM | ACHN > 100 µM

CC1=CC=CC(C)(C)CC1(O[Si](C)(C)C)C(F)(F)F (stereo not given)
inactive: MDA-N > 100 µM | SNB-19 > 100 µM | COLO 205 72.3 µM | A549 64.3 µM | Malme-3M > 100 µM | U-251 98.9 µM | EKVX 82.6 µM | HOP-92 > 100 µM | TK-10 > 100 µM | HL-60 28.9 µM | DU-145 > 100 µM | SNB-75 > 100 µM | SW-620 > 100 µM | T47D > 100 µM | OVCAR-5 > 100 µM | KM12 > 100 µM | MDA-MB-435 > 100 µM | HCC 2998 > 100 µM | HOP-62 > 100 µM | ACHN > 100 µM

COc1ccc2c(CCNS(=O)(=O)c3ccccc3)c(C(C)=O)[nH]c2c1
inactive: MDA-N > 71.3 µM | SNB-19 66.7 µM | COLO 205 > 73.6 µM | A549 54.3 µM | Malme-3M > 100 µM | U-251 > 74.3 µM | EKVX > 100 µM | HOP-92 > 100 µM | TK-10 > 100 µM | HL-60 > 75.3 µM | DU-145 > 80.2 µM | SNB-75 52.8 µM | SW-620 > 100 µM | T47D > 52.2 µM | OVCAR-5 > 88.9 µM | KM12 54.2 µM | MDA-MB-435 12.3 µM | HCC 2998 > 100 µM | HOP-62 > 50.6 µM | ACHN 3.15 µM

O=C1C=C(Nc2ccccc2C(=O)CC(=O)C(=O)Nc2cccc(C(F)(F)F)c2)c2ccccc2C1=O
inactive: MDA-N 12.6 µM | SNB-19 54.3 µM | COLO 205 66.8 µM | A549 46.5 µM | Malme-3M 15.1 µM | U-251 31.3 µM | EKVX 37.8 µM | HOP-92 31.4 µM | TK-10 > 96.4 µM | HL-60 4.94 µM | DU-145 78 µM | SNB-75 50.4 µM | SW-620 27.6 µM | T47D > 100 µM | OVCAR-5 > 77.1 µM | KM12 24 µM | MDA-MB-435 7.5 µM | HCC 2998 > 41.8 µM | HOP-62 40 µM | ACHN 28.3 µM

CCCCCCCCCCCCCCCCNc1ccc2c(c1)OCCOCCOCCOCCO2
inactive: MDA-N 3.14 µM | SNB-19 3.37 µM | COLO 205 1.75 µM | A549 3.78 µM | Malme-3M 3.56 µM | U-251 2.49 µM | EKVX 4.03 µM | HOP-92 2.37 µM | TK-10 11.7 µM | HL-60 2.07 µM | DU-145 4.24 µM | SNB-75 3.92 µM | SW-620 3.37 µM | T47D 3.11 µM | OVCAR-5 3.61 µM | KM12 2.06 µM | MDA-MB-435 3.17 µM | HCC 2998 4.03 µM | HOP-62 2.51 µM | ACHN 3.05 µM

Cc1c(C)c2c(c(N)c1C#N)C(=O)N(Cc1ccc(S(N)(=O)=O)cc1)C2=O
inactive: MDA-N > 100 µM | SNB-19 5.51 µM | COLO 205 > 100 µM | A549 > 58.6 µM | Malme-3M 20.5 µM | U-251 7.18 µM | EKVX > 45 µM | HOP-92 13.6 µM | TK-10 22.4 µM | HL-60 > 100 µM | DU-145 32.1 µM | SNB-75 > 35.9 µM | SW-620 > 100 µM | T47D > 39.2 µM | OVCAR-5 24.3 µM | KM12 > 100 µM | MDA-MB-435 > 100 µM | HCC 2998 > 100 µM | HOP-62 4.07 µM | ACHN > 42.6 µM

CN(C)CC1(Cc2ccccc2)CCC(Cc2ccccc2)C1=O (stereo not given)
inactive: MDA-N 11 µM | SNB-19 16 µM | COLO 205 6.85 µM | A549 17.3 µM | Malme-3M 12.5 µM | U-251 17.5 µM | EKVX 17.1 µM | HOP-92 17.4 µM | TK-10 13.4 µM | HL-60 3.29 µM | DU-145 14.8 µM | SNB-75 14.4 µM | SW-620 3.67 µM | T47D 8.61 µM | OVCAR-5 18 µM | KM12 8.36 µM | MDA-MB-435 10.2 µM | HCC 2998 7.05 µM | HOP-62 18 µM | ACHN 16.1 µM

O=C(Nn1c(-c2ccccc2)nc2ccccc2c1=O)c1ccc(O)cc1
inactive: MDA-N > 100 µM | SNB-19 > 100 µM | COLO 205 > 100 µM | A549 > 100 µM | Malme-3M > 100 µM | U-251 > 100 µM | EKVX 61 µM | HOP-92 > 100 µM | TK-10 > 100 µM | HL-60 > 100 µM | DU-145 > 100 µM | SNB-75 > 100 µM | SW-620 > 100 µM | T47D > 100 µM | OVCAR-5 > 100 µM | KM12 > 100 µM | MDA-MB-435 > 100 µM | HCC 2998 > 100 µM | HOP-62 > 100 µM | ACHN > 100 µM

C=CCOc1ccc(C2c3c(n[nH]c3O)CC(O)(OCC)C2C(=O)OCC)cc1OC (stereo not given)
inactive: MDA-N > 100 µM | SNB-19 > 100 µM | COLO 205 > 100 µM | A549 > 100 µM | Malme-3M > 100 µM | U-251 > 100 µM | EKVX > 100 µM | HOP-92 > 100 µM | TK-10 > 100 µM | HL-60 > 100 µM | DU-145 > 100 µM | SNB-75 > 100 µM | SW-620 > 100 µM | T47D > 100 µM | OVCAR-5 > 100 µM | KM12 > 100 µM | MDA-MB-435 > 100 µM | HCC 2998 > 100 µM | HOP-62 > 100 µM | ACHN > 100 µM

CCOC(=O)/C=C\C(C#N)(C#N)/N=C/c1ccsc1
inactive: MDA-N 8.91 µM | SNB-19 23.1 µM | COLO 205 1.9 µM | A549 19.1 µM | Malme-3M 2.29 µM | U-251 17.1 µM | EKVX 16.5 µM | HOP-92 2.05 µM | TK-10 2.1 µM | HL-60 2 µM | DU-145 16.5 µM | SNB-75 13 µM | SW-620 1.62 µM | T47D 2 µM | OVCAR-5 18.2 µM | KM12 19.5 µM | MDA-MB-435 2.39 µM | HCC 2998 16 µM | HOP-62 19.4 µM | ACHN 2.91 µM

Source: ChEMBL document CHEMBL1201862, “PubChem BioAssay data set” (2004)
